Results reported in patent US3975433A, “1-(2,4-Dimethoxy-phenyl)-3-(2-hydroxyethyl)thiourea” (The Dow Chemical Company, priority 1975, dated 1976).

Legend:
[1] = system: reserpine-induced ptosis; assay: counteraction of reserpine-induced ptosis in mice (antidepressant properties); assay type: in vivo; details: for inhibition of reserpine-induced ptosis: mice, 60 mg/kg (i.p.), comparative trials, result in words
Method: The antidepressant properties of the thiourea employed in the methods of the present invention are determined by measuring their ability to counteract ptosis induced in animals by the intraperitoneal injection of reserpine. Graded doses (from about 2.1 to about 100 mg/kg) of the active compounds of this invention are administered intraperitoneally to groups of five mice each, followed 30 minutes later by an intraperitoneal injection of reserpine in an amont which is known to induce ptosis in mice. Similar groups of control mice are administered only reserpine. Forty-five minutes after the administration of reserpine, the presence or absence of ptosis is noted. The percent inhibition of ptosis is noted and the median effective dose (ED50) of each test ingredient which protected 50% of the test mice from reserpine-induced ptosis was calculated.

[2] = system: Ascaridia galli; assay: control of Ascaridia galli in chickens (anthelmintic efficacy); assay type: in vivo; details: infected chickens; for activity in controlling Ascaridia: tested as controls, result in words, dose not separately stated
Method: The compound was evaluated for activity in the control of Ascaridia galli in chickens. The test chickens following infection with Ascaridia are held for at least 30 days to permit all worms to mature. The compound is evaluated for activity in two chickens which are caged together. The compound may be administered orally as a single oral dose or in the feed for four consecutive days. Anthelmintic efficacy of the compound against Ascaridia is determined by comparing the number of ascarids passed in the feces during the first 72 hours post treatment to the number of worms recovered at necropsy.
The following compounds were also tested as controls and found to have no activity in controlling Ascaridia: 1-(4-methoxyphenyl)-3-(2-hydroxyethyl)thiourea; 1-(2,4-dimethylphenyl)-3-(2-hydroxyethyl)thiourea; 1-(4-methylphenyl)-3-(2-hydroxyethyl)thiourea; and 1-(4-methoxy-2-methylphenyl)-3-(2-hydroxyethyl)thiourea.

| Structure (SMILES) | activity in controlling Ascaridia [2] | also measured |
| --- | --- | --- |
| COc1ccccc1NC(=S)NCCO [1-(2-methoxyphenyl)-3-(2-hydroxyethyl)thiourea] | – | inhibition of reserpine-induced ptosis [1]: did not inhibit |
| COc1ccc(NC(=S)NCCO)c(OC)c1 [Compound 1, 1-(2,4-dimethoxyphenyl)-3-(2-hydroxyethyl)thiourea] | – | activity (number of worms passed in the feces compared to those found at autopsy) ([2]; 150 mg/kg, feces during first 72 hours post treatment): 50% |
| Cc1ccc(NC(=S)NCCO)c(C)c1 [1-(2,4-dimethylphenyl)-3-(2-hydroxyethyl)thiourea] | no activity | – |
| CN(C)CCCN1c2ccccc2CCc2ccccc21 [Imipramine] | – | ED50 ([1]; Mus musculus, ip, read-out: ED50 (median effective dose which protected 50% of the test mice from reserpine-induced ptosis)): 15 mg/kg |
| COc1ccc(NC(=S)NCCO)cc1OC [1-(3,4-dimethoxyphenyl)-3-(2-hydroxyethyl)thiourea] | – | inhibition of reserpine-induced ptosis [1]: did not inhibit |
| COc1ccc(NC(=S)NCCO)c(C)c1 [1-(4-methoxy-2-methylphenyl)-3-(2-hydroxyethyl)thiourea] | no activity | – |
| COc1ccc(NC(=S)NCCO)cc1 [1-(4-methoxyphenyl)-3-(2-hydroxyethyl)thiourea] | no activity | – |
| Cc1ccc(NC(=S)NCCO)cc1 [1-(4-methylphenyl)-3-(2-hydroxyethyl)thiourea] | no activity | – |
